# System: Mus musculus
# Test: Toxicity in ICR mouse assessed as behavioral changes measured as latency time during acquisition trial at 0.5 to 5 mg/kg, po administered 30 min before acquisition trial by passive avoidance test
# Format: organism-based
# Design: dose 0.5-5 mg/kg, route oral
# Conditions: in vivo, 0.5 h
row,SMILES,Activity
1,COc1ccc(/C=C2\Oc3cc(OCCN4CCCCC4)ccc3C2=O)cc1OC.Cl,Non-toxic

# System: Mus musculus
# Test: Reversal of scopolamine-induced memory deficit in ICR mouse assessed as latency time at 0.5 mg/kg, ip administered 30 min before acquisition trial by passive avoidance test (Rvb =271.0 +/- 14.49 seconds)
# Format: functional
# Conditions: route intraperitoneal
row,SMILES,Time
1,COc1ccc(/C=C2\Oc3cc(OCCN4CCCCC4)ccc3C2=O)cc1OC.Cl,88.9 s

# Biological target: T1, Acetylcholinesterase (Mus musculus, UniProt P21836)
# T1 sequence (P21836 whole entry): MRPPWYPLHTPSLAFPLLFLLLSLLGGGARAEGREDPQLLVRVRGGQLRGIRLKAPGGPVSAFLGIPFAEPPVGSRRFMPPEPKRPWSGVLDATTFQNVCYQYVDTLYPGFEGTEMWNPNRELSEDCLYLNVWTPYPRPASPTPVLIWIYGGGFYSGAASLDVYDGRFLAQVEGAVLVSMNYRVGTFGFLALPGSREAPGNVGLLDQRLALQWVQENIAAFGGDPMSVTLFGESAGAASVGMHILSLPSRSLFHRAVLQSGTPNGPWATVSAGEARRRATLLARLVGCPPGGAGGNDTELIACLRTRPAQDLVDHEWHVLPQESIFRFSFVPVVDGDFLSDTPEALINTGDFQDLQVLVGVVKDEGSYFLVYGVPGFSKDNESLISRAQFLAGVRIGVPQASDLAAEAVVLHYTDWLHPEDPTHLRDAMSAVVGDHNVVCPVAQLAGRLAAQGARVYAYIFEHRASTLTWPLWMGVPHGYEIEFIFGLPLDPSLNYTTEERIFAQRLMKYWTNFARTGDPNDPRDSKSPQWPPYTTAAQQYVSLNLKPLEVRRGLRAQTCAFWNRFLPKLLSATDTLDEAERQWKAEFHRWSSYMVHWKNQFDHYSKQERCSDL
# Conditions: not given
row,SMILES,IC50
1,COc1ccc(/C=C2\Oc3cc(OCCN4CCCC4)ccc3C2=O)cc1OC,750 nM
2,COc1cc(/C=C2\Oc3cc(OCCN4CCCC4)ccc3C2=O)cc(OC)c1,4810 nM
3,COc1cc(/C=C2\Oc3cc(OCCN4CCCC4)ccc3C2=O)cc(OC)c1OC,1560 nM
4,CCN(CC)CCOc1ccc2c(c1)O/C(=C\c1ccc(O)cc1)C2=O,35500 nM
5,COc1cccc(/C=C2\Oc3cc(OCCCN4CCCC4)ccc3C2=O)c1,4200 nM
6,COc1cc(/C=C2\Oc3cc(OCCN4CCCCC4)ccc3C2=O)cc(OC)c1OC,1120 nM
7,COc1cccc(/C=C2\Oc3cc(OCCN4CCCC4)ccc3C2=O)c1OC,990 nM
8,O=C1/C(=C/c2ccc(O)cc2)Oc2cc(OCCN3CCCCC3)ccc21,13500 nM
9,COc1ccc(/C=C2\Oc3cc(OCCCN4CCCCC4)ccc3C2=O)cc1OC,890 nM
10,O=C1/C(=C/c2ccc(O)c(O)c2)Oc2cc(O)ccc21 [SULFURETIN],699000 nM
11,COc1ccc(/C=C2\Oc3cc(OCCCN4CCCC4)ccc3C2=O)c(OC)c1,1660 nM
12,COc1cccc(/C=C2\Oc3cc(OCCN4CCCCC4)ccc3C2=O)c1,1150 nM
13,COc1ccccc1/C=C1\Oc2cc(OCCCN3CCCC3)ccc2C1=O,5930 nM
14,COc1cc(/C=C2\Oc3cc(OCCCN4CCCC4)ccc3C2=O)cc(OC)c1,4630 nM
15,COc1ccc(/C=C2\Oc3cc(OCCCCN4CCCCC4)ccc3C2=O)cc1OC,1520 nM
16,COc1ccc(/C=C2\Oc3cc(OCCN4CCCCC4)ccc3C2=O)cc1,900 nM

row,SMILES,IC50
1,COc1cccc(/C=C2\Oc3cc(OCCCN4CCCC4)ccc3C2=O)c1OC,1050 nM
2,COc1ccc(/C=C2\Oc3cc(OCCN4CCCC4)ccc3C2=O)c(OC)c1OC,13700 nM
3,COc1ccccc1/C=C1\Oc2cc(OCCN3CCCC3)ccc2C1=O,2870 nM
4,COc1ccc(/C=C2\Oc3cc(OCCCN4CCCC4)ccc3C2=O)cc1OC,1030 nM
5,COc1ccc(/C=C2\Oc3cc(OCCN4CCCC4)ccc3C2=O)cc1,2380 nM
6,COc1ccc(/C=C2\Oc3cc(OCCN4CCCC4)ccc3C2=O)c(OC)c1,1610 nM
7,COc1ccccc1/C=C1\Oc2cc(OCCN3CCCCC3)ccc2C1=O,2520 nM
8,COc1ccc(OC)c(/C=C2\Oc3cc(OCCN4CCCC4)ccc3C2=O)c1,1490 nM
9,COc1ccc(/C=C2\Oc3cc(OCCCN4CCCC4)ccc3C2=O)cc1,3310 nM
10,COc1ccc(/C=C2\Oc3cc(OCCCCCN4CCCCC4)ccc3C2=O)cc1OC,1260 nM
11,COc1ccc(OC)c(/C=C2\Oc3cc(OCCCN4CCCC4)ccc3C2=O)c1,4740 nM
12,O=C1/C(=C/c2ccc(O)cc2)Oc2cc(OCCN3CCOCC3)ccc21,186000 nM
13,COc1cccc(/C=C2\Oc3cc(OCCCN4CCCCC4)ccc3C2=O)c1,750 nM
14,COc1cccc(/C=C2\Oc3cc(OCCN4CCCC4)ccc3C2=O)c1,1610 nM
15,COc1ccc(/C=C2\Oc3cc(OCCN4CCCCC4)ccc3C2=O)cc1OC.Cl,400 nM
16,O=C1/C(=C/c2ccc(O)cc2)Oc2cc(OCCN3CCCC3)ccc21,11100 nM

# System: Mus musculus
# Test: Reversal of scopolamine-induced memory deficit in ICR mouse assessed as latency time at 1 mg/kg, po administered 30 min before acquisition trial by passive avoidance test (Rvb =271.0 +/- 14.49 seconds)
# Format: functional
# Conditions: not given
row,SMILES,Time
1,COc1ccc2c3c1O[C@H]1C[C@@H](O)C=C[C@@]31CCN(C)C2 [GALANTAMINE],212.2 s
2,COc1ccc(/C=C2\Oc3cc(OCCN4CCCCC4)ccc3C2=O)cc1OC.Cl,242.5 s

# System: Mus musculus
# Test: Reversal of scopolamine-induced memory deficit in ICR mouse assessed as latency time at 2 mg/kg, po administered 30 min before acquisition trial by passive avoidance test (Rvb =271.0 +/- 14.49 seconds)
# Format: functional
# Conditions: not given
row,SMILES,Time
1,COc1ccc(/C=C2\Oc3cc(OCCN4CCCCC4)ccc3C2=O)cc1OC.Cl,222.4 s

# System: Mus musculus
# Test: Reversal of scopolamine-induced memory deficit in ICR mouse assessed as latency time at 5 mg/kg, po administered 30 min before acquisition trial by passive avoidance test (Rvb =271.0 +/- 14.49 seconds)
# Format: functional
# Conditions: not given
row,SMILES,Time
1,COc1ccc(/C=C2\Oc3cc(OCCN4CCCCC4)ccc3C2=O)cc1OC.Cl,206.8 s
